Source: US20230000813A1, “COMPOUND FOR THE TREATMENT OF BOVINE OR SWINE RESPIRATORY DISEASE” (Intervet Inc., priority 2016, published 2023)
Values after ≈ are worked out from the molar mass of the structure shown. Where two headings read alike, the source gives them in different places.

Key:
Assay type in all cases: cell-based
[1] = test system: Mannheimia haemolytica MH 12587 (1071, BRD field isolate, macrolide-resistance: erm+, E+); assay: MIC, broth-microdilution (CLSI VET01-A4); settings: Mannheimia haemolytica MH 12587, macrolide-resistant
Summary of the method: (§1)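 Read-out is visual: the MIC is the lowest compound concentration at which no turbidity is seen by eye. Trays carried a doubling dilution series, with interpretation following CLSI VET01-S3.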

[2] = test system: Pasteurella multocida PM 12080 (IV102277-0093, BRD field isolate); assay: MIC, broth-microdilution (CLSI VET01-A4)
Summary of the method: as §1

[3] = test system: Mannheimia haemolytica MH 6357 (M7/2, reference strain, cattle infection strain); assay: MIC, broth-microdilution (CLSI VET01-A4)
Summary of the method: as §1

[4] = test system: Pasteurella multocida PM 10775 (080130003051, BRD field isolate); assay: MIC, broth-microdilution (CLSI VET01-A4); settings: strain PM 10775
Summary of the method: as §1

[5] = test system: Pasteurella multocida PM 6267 (P 2225 (L386), reference strain, mouse infection strain); assay: MIC, broth-microdilution (CLSI VET01-A4)
Summary of the method: as §1

[6] = test system: Mannheimia haemolytica MH 10720 (154, BRD field isolate); assay: MIC, broth-microdilution (CLSI VET01-A4); settings: strain MH 10720
Summary of the method: as §1

[7] = test system: Mannheimia haemolytica MH 6374 (ATCC 33396, reference strain); assay: MIC, broth-microdilution (CLSI VET01-A4)
Summary of the method: as §1

[8] = test system: Pasteurella multocida PM 6391 (ATCC 43137, reference strain); assay: MIC, broth-microdilution (CLSI VET01-A4)
Summary of the method: as §1

[9] = test system: 20 isolates of Actinobacillus (A.) pleuropneumoniae; assay: MIC50/MIC90, broth-microdilution, European respiratory tract isolates
Procedure: (§2) The in vitro activity of compounds against 20 isolates of Actinobacillus (A.) pleuropneumoniae, 20 of Bordetella (B.) bronchiseptica, 20 of Histophilus (H.) somni, 40 of Mannheimia (M.) haemolytica and 40 of Pasteurella (P.) multocida collected in different European countries were determined. All bacteria were isolated from the respiratory tract of swine and cattle suffering from respiratory disease. All isolates were epidemiologically unrelated as specified by the different suppliers.
(§3) The minimum inhibitory concentrations (MIC) of compounds according to the invention were determined by the broth-microdilution method according to CLSI document VET01-A4.
(§4) Microdilution trays containing a doubling dilution series of the test compounds were used for the tests.
(§5) The MIC results were interpreted according to the CLSI documents VET01-S3. The lowest concentration of compound at which no visible growth (i.e. no turbidity) detected by the unaided eye was recorded as the MIC.

[10] = test system: 20 isolates of Histophilus (H.) somni; assay: as above
Procedure: as §2, §3, §4, §5

[11] = test system: 20 isolates of Bordetella (B.) bronchiseptica; assay: as above
Procedure: as §2, §3, §4, §5

[12] = test system: 40 isolates of Mannheimia (M.) haemolytica; assay: as above
Procedure: as §2, §3, §4, §5

[13] = test system: 40 isolates of Pasteurella (P.) multocida; assay: as above
Procedure: as §2, §3, §4, §5

[14] = test system: 15 isolates of H. parasuis; assay: MIC50/MIC90, agar-dilution method (GC agar base); settings: Haemophilus parasuis
Procedure: The in vitro activity of 3 representative compounds of this invention against 15 isolates of H. parasuis was determined. All strains were isolated from the respiratory tract of swine in different European countries The MICs for all isolates were determined by using the agar-dilution method according to CLSI document VET01-A4 [1]with the following modification: GC agar base was used instead of Mueller-Hinton agar base for the preparation of the agar-dilution plates. Results were interpreted according to the CLSI document VET01-S3.

[15] = test system: Mannheimia haemolytica MH 13093 (XB0472-6014.1, BRD field isolate); assay: MIC, broth-microdilution (CLSI VET01-A4)
Summary of the method: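 MIC read by eye as lowest compound concentration without visible growth (no turbidity), interpreted per CLSI VET01-S3. Doubling-dilution broth-microdilution trays, run according to CLSI VET01-A4.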

[16] = test system: Mannheimia haemolytica MH 12180 (KLI-02944, BRD field isolate); assay: MIC, broth-microdilution (CLSI VET01-A4); settings: strain MH 12180
Procedure: (§6) The Minimum inhibitory concentrations (MIC) of compounds according to the invention were determined by the broth-microdilution method according to CLSI document VET01-A4.
(§7) Microdilution trays containing a doubling dilution series of the test compound were used for the tests.
as §5

[17] = test system: Pasteurella multocida PM 14426 (0006-439, BRD field isolate, macrolide-resistant); assay: MIC, broth-microdilution (CLSI VET01-A4); settings: strain PM 14426, macrolide-resistant
Procedure: as §6, §7, §5

[18] = test system: Staphylococcus aureus SA 6114 (ATCC 29213, reference strain); assay: MIC, broth-microdilution (CLSI VET01-A4); settings: strain SA 6114
Procedure: as §6, §7, §5

[19] = test system: Acinetobacter baumanii AB 15919 (IV369-2012, dermatitis field isolate); assay: MIC, broth-microdilution (CLSI VET01-A4); settings: strain AB 15919
Procedure: as §6, §7, §5

[20] = test system: Acinetobacter baumanii AB 16496 (ATCC 19606, reference strain); assay: MIC, broth-microdilution (CLSI VET01-A4); settings: strain AB 16496
Procedure: as §6, §7, §5

[21] = test system: Staphylococcus aureus SA 5816 (2139, mastitis field isolate); assay: MIC, broth-microdilution (CLSI VET01-A4); settings: strain SA 5816
Procedure: as §6, §7, §5

With `C[C@@H](O)[C@H](NC(=O)c1ccc(C#Cc2ccc(CNCC(F)(F)F)cc2)cc1)C(=O)NO` [C. 467] the “MIC MH 12587” value [1] was 0.4 µM (≈ 0.18 µg/mL), the “MIC PM 12080” value ([2]; Pasteurella multocida PM 12080) was “<=0.1 μM” and the MIC ([2]; strain PM 12080) was no more than 0.016 µg/mL. The “MIC MH 6357” value ([3]; Mannheimia haemolytica MH 6357) was “<=0.1 μM”, the MIC ([3]; strain MH 6357) was 0.125 µg/mL (≈ 0.278 µM) and the MIC [4] was no more than 0.016 µg/mL. The “MIC PM 6267” value ([5]; Pasteurella multocida PM 6267) was “<=0.1 μM”, the MIC ([5]; strain PM 6267) was 0.032 µg/mL (≈ 0.0712 µM) and the MIC [6] was no more than 0.016 µg/mL. For the same molecule, the MIC ([7]; Mannheimia haemolytica MH 6374, read-out: MIC MH 6374) was 0.2 µM, the MIC ([7]; strain MH 6374) was 0.063 µg/mL and the “MIC PM 6391” value ([8]; Pasteurella multocida PM 6391) was “<=0.1 μM”. For the same molecule, the MIC ([8]; strain PM 6391) was 0.032 µg/mL (≈ 0.0712 µM), the MIC50 [9] was 0.032 µg/mL (≈ 0.0712 µM) and the MIC90 [9] was 0.063 µg/mL (≈ 0.14 µM). For the same molecule, the MIC50 [10] was no more than 0.016 µg/mL, the MIC90 [10] was no more than 0.016 µg/mL and the MIC50 [11] was 2 µg/mL (≈ 4.45 µM). It also gave an MIC90 [11] of 2 µg/mL (≈ 4.45 µM), an MIC50 [12] of 0.032 µg/mL (≈ 0.0712 µM) and an MIC90 [12] of 0.063 µg/mL (≈ 0.14 µM). For the same molecule, the MIC50 [13] was no more than 0.016 µg/mL, the MIC90 [13] was no more than 0.016 µg/mL and the MIC50 [14] was 0.125 µg/mL (≈ 0.278 µM). It also gave an MIC90 [14] of 0.25 µg/mL (≈ 0.556 µM), an MIC [15] of 0.4 µM (≈ 0.18 µg/mL) and an MIC [16] of 0.032 µg/mL (≈ 0.0712 µM). The MIC [17] was no more than 0.016 µg/mL, the MIC [18] was greater than 16 µg/mL and the MIC [19] was greater than 16 µg/mL. It also gave an MIC [20] greater than 16 µg/mL and an MIC [21] greater than 16 µg/mL.
